Assay results published in US20060127400A1, “Activation of regulatory T cells by alpha-melanocyte stimulating hormone” (THE SCHEPENS EYE RESEARCH INSTITUTE, INC., priority 1999, published 2006).
“Also recorded” adds a separate entry of the source. No end group written: not given here.

Assays:
primed T cells = assay: total TGF-β production by TCR-stimulated primed T cells, Mv1Lu (CCL-64) bioassay; type: cell-based, mouse (BALB/c); conditions: 48 h
Protocol: TGF-β bioassay. To measure total TGF-β, 100 μl of conditioned media was pretreated according to standard procedures (24) with 10 μl 1N HCL to lower the media pH to 2 and incubated for 1 hour at 4° C. The acid was neutralized with 20 μl of a 1:1 mixture of 1N NaOH: 1M HEPES returning the culture supernatant to a pH 7.3. The transiently acidified conditioned media was then used in the Mv1Lu assay; diluted 1:4 in EMEM+0.5% FBS. To the wells of a Falcon 96-well flat-bottom plate, 100 μl of diluted transiently acidified samples were added with 100 μl of 1×10^5 Mv1Lu cells (CCL-64; ATCC, Rockville, Md.). The plate was incubated for 20 hours at 37° C., 5% CO2 followed by the addition of 20 μl of 50 μCi/ml 3H-thymidine and the plate was incubated for an additional 4 hours. Supernatant was discarded and 50 μl of 10× Trypsin-EDTA (Biowhittaker, Walkersville, Md.) solution was added to each well and the plate was incubated for 15 minute at 37° C. The cells were collected onto filter paper using a Tomtec Plate Harvester 96 and counts per minute (CPM) of incorporation 3H-thymidine was measured using a Wallac 1205 Betaplate Liquid Scintillation Counter. Cultures of known amounts of purified activated TGF-β1, 20 ng/ml to 0.2 pg/ml (R&:D Systems), were prepared in the same plate for calculating a standard curve to quantify the concentration of total TGF-β in the samples.
Primed T Cell In Vitro Assays. From draining lymph nodes of BALB/c mice immunized 7 days previously with MT-Ag, primed T cells were isolated using CD3 enrichment columns (R&D Systems). T-cells (4×10^5 cells) suspended in serum-free media were added to the wells of a 96 well, round bottom plate (Corning). To the wells were added α-MSH (30 pg/ml) and anti-TCR antibody (2C11; 1 μg/ml) diluted in serum-free culture media. Various concentrations of TGF-β1 or TGF-β2 in media were added. In a second set of experiments TGF-β1 or TGF-β2 at a fixed concentration of 5 ng/ml were added to the wells at various times (0, 2, 4 and 6 hours) after addition of anti-TCR antibody. The cultures were incubated for 24 hours and 0.5 μCi of 3H-thymidine (NEM, Boston, Mass.) was added to the wells and the cultures were incubated for an additional 24 hours. The cells were collected and incorporated radiolabeled was measured by scintillation counting. Production of TGF-β by the treated primed T cells was done by centrifuging the culture plates 24 hours after the addition of anti-TCR antibody, removing the supernatant, washing the cultures once and adding fresh media. […]
FIG. 4 is a bar graph of TGF-β production by primed T cells TCR-stimulated in the presence of α-MSH. […] Significance (p=0.05) was determined by Student's t-test between TGF-β concentrations in cultures of activated α-MSH treated T cells and T cells activated in the absence of α-MSH. […]

[1] = tested on: experimental autoimmune uveitis; assay: EAU, α-MSH injected i.v. at the time of peak retinal inflammation; type: in vivo, mouse
CD25+ CD4+ T cells = assay: two-color flow cytometry for CD4 and CD25 on activated primed T cells; type: cell-based, mouse; conditions: TCR-stimulated in the presence or absence of α-MSH 30 pg/ml, 24 hours
Protocol: In another example, for immunostaining and fluorescence-activated cell sorting, T cells (2×10^6 cells) from 24 hour cultures of the α-MSH-treated activated T cells were centrifuged and washed once in PBS/BSA buffer (10 mM PBS, 3% BSA). The cells were resuspended in 50 μl of PBS/BSA buffer containing 2 μg of PE-conjugated anti-CD4 and FITC-conjugated anti-CD25 antibodies and incubated for 30 minutes room temperature. The cells were centrifuged, resuspended in 1 ml of PBS/BSA buffer, and washed two times. The stained cells were sorted by a Coulter ELITE cell sorter calibrated for two color fluorescence. The cells were sorted into two populations, CD25^+ CD4^+ cells and the remaining cells (all CD4^− cells plus CD25^−CD4^+ cells). The sorted cells were used immediately in the in vitro regulatory T cell assay.
α-MSH induced CD25^+ CD4^+ regulatory T cells. To characterize the regulatory T cells induced by α-MSH, we assayed through flow cytometry the possibility that α-MSH induces CD25^+ (IL-2Rα) CD4^+ regulatory T cells. […] The cells were analyzed by two-color flow cytometry after staining with anti-CD4 and anti-CD25. Presented is a representative dot plot of the flow cytometry seen in four separate staining experiments. (B) Only T cells activated in the presence of α-MSH, were stained and sorted based on the coexpression of CD4 and CD25. […]

Substance: α-melanocyte stimulating hormone (SYSMEHFRWGKPV; not fully specified; ends and bridges not checked; UniProt P01189 138-150, looked up) [α-MSH, synthetic α-MSH (Peninsula Laboratories); thirteen-amino acid neuropeptide derived from POMC]
- TGF-β production by TCR-stimulated primed T cells (primed T cells; serum-free, transiently acidified supernatant): enhanced levels; also recorded: significantly enhanced
- threshold of α-MSH concentration needed to induce TGF-β1 production (primed T cells; TCR-stimulated T cells): 30 pg/mL
- severity of experimental autoimmune uveitis (EAU) [1]: significantly suppressed
- percentage of CD25+ CD4+ cells (CD25+ CD4+ T cells): did not change
